Assay results reported in ChEMBL document CHEMBL4007440, “Development of the First Generation of Disulfide-Based Subtype-Selective and Potent Covalent Pyruvate Dehydrogenase Kinase 1 (PDK1) Inhibitors” (J Med Chem, 2017).
One block for each compound: values may come before it. Activity calls are given as the source filed them. No cut-off for these calls is given here.

How the values were obtained:
[1] = target: T1, [Pyruvate dehydrogenase (acetyl-transferring)] kinase isozyme 1, mitochondrial (Homo sapiens, UniProt Q15118); test: Inhibition of full length His6-tagged PDK1 (unknown origin) expressed in Escherichia coli using full length His6-tagged PDHA1 as substrate after 30 mins by ELISA
T1 sequence (Q15118 whole entry): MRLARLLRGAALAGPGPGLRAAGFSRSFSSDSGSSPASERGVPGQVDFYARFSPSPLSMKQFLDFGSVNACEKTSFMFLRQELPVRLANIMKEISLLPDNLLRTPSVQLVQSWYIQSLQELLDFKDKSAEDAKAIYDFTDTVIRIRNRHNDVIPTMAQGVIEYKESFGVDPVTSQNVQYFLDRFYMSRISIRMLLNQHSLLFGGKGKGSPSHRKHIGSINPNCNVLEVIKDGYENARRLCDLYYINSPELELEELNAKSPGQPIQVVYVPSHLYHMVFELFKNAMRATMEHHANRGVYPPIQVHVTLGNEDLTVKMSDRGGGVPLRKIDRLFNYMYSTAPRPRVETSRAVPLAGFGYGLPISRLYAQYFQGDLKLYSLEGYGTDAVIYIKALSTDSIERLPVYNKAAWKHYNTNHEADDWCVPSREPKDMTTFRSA

[2] = target: T1, [Pyruvate dehydrogenase (acetyl-transferring)] kinase isozyme 1, mitochondrial; test: Inhibition of full length His6-tagged PDK1 (unknown origin) expressed in Escherichia coli up to 10 uM using full length His6-tagged PDHA1 as substrate after 30 mins by ELISA
[3] = target: T1, [Pyruvate dehydrogenase (acetyl-transferring)] kinase isozyme 1, mitochondrial; test: Inhibition of PDK1 in human A549 cells assessed as reduction in phosphorylation of PDHE1 at S293 residue at 10 uM after 24 hrs by chemiluminescence/femtochemiluminescence method; format: cell-based
[4] = target: T1, [Pyruvate dehydrogenase (acetyl-transferring)] kinase isozyme 1, mitochondrial; test: Inhibition of PDK1 in human A549 cells assessed as reduction in phosphorylation of PDHE1 at S293 residue at 1 uM after 24 hrs by chemiluminescence/femtochemiluminescence method; format: cell-based
[5] = target: T1, [Pyruvate dehydrogenase (acetyl-transferring)] kinase isozyme 1, mitochondrial; test: Inhibition of PDK1 in human A549 cells assessed as reduction in phosphorylation of PDHE1 at S232 residue at 1 uM after 24 hrs by chemiluminescence/femtochemiluminescence method; format: cell-based
[6] = target: T1, [Pyruvate dehydrogenase (acetyl-transferring)] kinase isozyme 1, mitochondrial; test: Inhibition of PDK1 in human A549 cells assessed as reduction in phosphorylation of PDHE1 at S232 residue at 10 uM after 24 hrs by chemiluminescence/femtochemiluminescence method; format: cell-based
[7] = target: T1, [Pyruvate dehydrogenase (acetyl-transferring)] kinase isozyme 1, mitochondrial; test: Ratio of Kinact to Ki for full length His6-tagged PDK1 (unknown origin) expressed in Escherichia coli
[8] = target: T1, [Pyruvate dehydrogenase (acetyl-transferring)] kinase isozyme 1, mitochondrial; test: Inhibition of full length His6-tagged PDK1 (unknown origin) expressed in Escherichia coli assessed as inactivation rate using full length His6-tagged PDHA1 as substrate up to 45 mins by ELISA
A549 [9] = test: Antitumor activity against human A549 cells xenografted in BALB/c nude mouse assessed as tumor growth inhibition at 40 mg/kg, ip for 21 days measured on day 21 post dose relative to control; format: functional; settings: 504 h, read-out: TGI
[10] = target: [Pyruvate dehydrogenase (acetyl-transferring)] kinase isozyme 2, mitochondrial (Homo sapiens, UniProt Q15119); test: Inhibition of PDK2 (unknown origin) using full length His6-tagged PDHA1 as substrate after 30 mins by ELISA
[11] = target: T1, [Pyruvate dehydrogenase (acetyl-transferring)] kinase isozyme 1, mitochondrial; test: Inhibition of PDK1 in human A549 cells assessed as reduction in extracellular acidification rate after 24 hrs by fluorescent biosensor based assay; format: cell-based
[12] = target: [Pyruvate dehydrogenase (acetyl-transferring)] kinase isozyme 4, mitochondrial (Homo sapiens, UniProt Q16654); test: Inhibition of PDK4 (unknown origin) at 10 uM using full length His6-tagged PDHA1 as substrate after 30 mins by ELISA
Sequence of [Pyruvate dehydrogenase (acetyl-transferring)] kinase isozyme 4, mitochondrial (Q16654 whole entry, looked up): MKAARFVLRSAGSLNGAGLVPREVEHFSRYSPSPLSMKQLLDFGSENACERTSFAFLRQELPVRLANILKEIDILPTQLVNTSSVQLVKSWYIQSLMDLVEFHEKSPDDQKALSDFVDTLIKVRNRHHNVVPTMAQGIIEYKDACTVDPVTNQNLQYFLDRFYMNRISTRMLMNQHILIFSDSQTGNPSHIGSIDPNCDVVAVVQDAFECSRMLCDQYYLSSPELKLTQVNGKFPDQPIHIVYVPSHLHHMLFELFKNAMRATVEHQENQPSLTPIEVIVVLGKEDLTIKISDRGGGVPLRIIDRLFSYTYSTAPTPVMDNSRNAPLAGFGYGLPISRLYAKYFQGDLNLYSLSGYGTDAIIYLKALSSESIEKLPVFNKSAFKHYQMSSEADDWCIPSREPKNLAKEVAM

[13] = target: T1, [Pyruvate dehydrogenase (acetyl-transferring)] kinase isozyme 1, mitochondrial; test: Inhibition of PDK1 in human A549 cells assessed as reduction in phosphorylation of PDHE1 at S293 residue after 24 hrs by chemiluminescence/femtochemiluminescence method; format: cell-based
[14] = target: T1, [Pyruvate dehydrogenase (acetyl-transferring)] kinase isozyme 1, mitochondrial; test: Inhibition of PDK1 in human A549 cells assessed as reduction in phosphorylation of PDHE1 at S232 residue after 24 hrs by chemiluminescence/femtochemiluminescence method; format: cell-based
[15] = target: T1, [Pyruvate dehydrogenase (acetyl-transferring)] kinase isozyme 1, mitochondrial; test: Inhibition of full length His6-tagged PDK1 (unknown origin) expressed in Escherichia coli using full length His6-tagged PDHA1 as substrate in presence of GSH after 30 mins by ELISA
[16] = target: [Pyruvate dehydrogenase (acetyl-transferring)] kinase isozyme 3, mitochondrial (Homo sapiens, UniProt Q15120); test: Inhibition of PDK3 (unknown origin) using full length His6-tagged PDHA1 as substrate after 30 mins by ELISA
Sequence of [Pyruvate dehydrogenase (acetyl-transferring)] kinase isozyme 3, mitochondrial (Q15120 whole entry): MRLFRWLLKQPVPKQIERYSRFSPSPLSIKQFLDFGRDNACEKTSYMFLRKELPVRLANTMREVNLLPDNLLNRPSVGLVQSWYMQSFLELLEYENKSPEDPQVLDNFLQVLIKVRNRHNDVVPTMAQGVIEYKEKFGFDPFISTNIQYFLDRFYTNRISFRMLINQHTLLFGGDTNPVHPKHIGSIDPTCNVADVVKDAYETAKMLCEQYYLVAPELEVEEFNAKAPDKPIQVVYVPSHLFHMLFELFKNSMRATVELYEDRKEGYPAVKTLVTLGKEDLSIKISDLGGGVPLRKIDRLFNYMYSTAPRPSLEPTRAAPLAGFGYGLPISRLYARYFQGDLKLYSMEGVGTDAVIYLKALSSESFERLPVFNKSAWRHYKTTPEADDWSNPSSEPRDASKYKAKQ

L02 = test: Antiproliferative activity against human LO2 cells after 72 hrs by CCK8 assay; format: cell-based; settings: L02, 72 h
A549 [17] = test: cells; settings: Homo sapiens, A549, 72 h
Description: Antiproliferative activity against human A549 cells after 72 hrs by CCK8 assay

[18] = target: T1, [Pyruvate dehydrogenase (acetyl-transferring)] kinase isozyme 1, mitochondrial; test: Inhibition of PDK1 in human A549 cells assessed as increase in reactive oxygen species after 24 hrs by dihydroethidium staining based FACS analysis; format: cell-based
A549 [19] = test: Antitumor activity against human A549 cells xenografted in BALB/c nude mouse assessed as tumor growth inhibition at 80 mg/kg, ip for 21 days measured on day 21 post dose relative to control; format: functional; settings: 504 h, read-out: TGI
[20] = Antiproliferative activity against human Kelly cells after 72 hrs by CCK8 assay
[21] = Antiproliferative activity against human GM00637 cells after 72 hrs by CCK8 assay; format: cell-based; settings: GM00637, 72 h

Structure (SMILES): COC[C@H]1COCCN1C(=S)SSC(=S)N1CCOC[C@@H]1COC
IC50 [1]: 30 nM | Ki [1]: 120 nM

Structure (SMILES): C1Cc2nc(SSc3nc4c(s3)COCC4)sc2CO1
IC50 [1]: 169 nM

Structure (SMILES): C1Cc2nc(SSc3nc4c(s3)CCC4)sc2C1
IC50 [1]: 139 nM

Structure (SMILES): COCC1CN(C(=S)SSC(=S)N2CCOC(COC)C2)CCO1 (stereo not given)
inhibition [4]: Active | inhibition [5]: Active | inhibition [6]: Active | IC50 [1]: 90 nM | inhibition [3]: Active

Structure (SMILES): CCOCC1CN(C(=S)SSC(=S)N2CCCOC(COCC)C2)CCCO1 (stereo not given)
IC50 [1]: 622 nM

Structure (SMILES): COCC1CN(C(=S)SSC(=S)N2CCCOC(COC)C2)CCCO1 (stereo not given)
IC50 [1]: 350 nM

Structure (SMILES): COC(=O)C1CN(C(=S)SSC(=S)N2CCOC(C(=O)OC)C2)CCO1 (stereo not given)
inhibition [4]: Active | inhibition [5]: Active | inhibition [6]: Active | IC50 [1]: 85 nM | inhibition [3]: Active

Structure (SMILES): COC[C@@H]1COCCN1C(=S)SSC(=S)N1CCOC[C@H]1COC
inhibition in vivo at 40 mg/kg (A549 [9]): 11% | Ki [10]: 702 nM | inhibition [11]: Dose-dependent effect | inhibition [12]: inactive | inhibition [13]: Dose-dependent effect | inhibition [14]: Dose-dependent effect | inhibition [4]: Active | inhibition [15]: inactive | inhibition [5]: Active | Ki [16]: 2990 nM | IC50 (L02): > 10000 nM | inhibition [6]: Active | IC50 (A549 [17]): 957 nM | IC50 [1]: 24 nM | Ki [1]: 110 nM | inhibition [3]: Active | inhibition [18]: Dose-dependent effect | inhibition in vivo at 80 mg/kg (A549 [19]): 20% | IC50 [20]: 1430 nM | IC50 [21]: > 10000 nM

Structure (SMILES): CC(=O)OCC1CN(C(=S)SSC(=S)N2CCOC(COC(C)=O)C2)CCO1 (stereo not given)
inhibition [4]: Active | inhibition [5]: Active | inhibition [6]: Active | IC50 [1]: 113 nM | inhibition [3]: Active

Structure (SMILES): Cc1ccc(OCC2CN(C(=S)SSC(=S)N3CCCOC(COc4ccc(C)cc4)C3)CCCO2)cc1 (stereo not given)
IC50 [1]: > 10000 nM

Structure (SMILES): CCOCC1CN(C(=S)SSC(=S)N2CCOC(COCC)C2)CCO1 (stereo not given)
IC50 [1]: 101 nM

Structure (SMILES): C1CCc2sc(SSc3nc4c(s3)CCCC4)nc2C1
IC50 [1]: 90 nM

Structure (SMILES): CN(C)C(=O)OCC1CN(C(=S)SSC(=S)N2CCCOC(COC(=O)N(C)C)C2)CCCO1 (stereo not given)
IC50 [1]: 1460 nM

Structure (SMILES): OCC1CN(C(=S)SSC(=S)N2CCOC(CO)C2)CCO1 (stereo not given)
inhibition [4]: inactive | inhibition [5]: inactive | inhibition [6]: Active | IC50 [1]: 702 nM | inhibition [3]: Active

Structure (SMILES): S=C(SSC(=S)N1CCOc2ccccc21)N1CCOc2ccccc21
Ratio [7]: 0.06 ×10³ /M/s | Kinact [8]: 2.1 ×10⁻⁴ /s | IC50 [1]: 1050 nM | Ki [1]: 3350 nM

Structure (SMILES): OCC1CN(C(=S)SSC(=S)N2CCCOC(CO)C2)CCCO1 (stereo not given)
IC50 [1]: 2850 nM

Structure (SMILES): c1csc(SSc2nccs2)n1
Ratio [7]: 1.53 ×10³ /M/s | Kinact [8]: 56.5 ×10⁻⁴ /s | IC50 [1]: 326 nM | Ki [1]: 3730 nM

Structure (SMILES): CCOC[C@@H]1COCCN1C(=S)SSC(=S)N1CCOC[C@H]1COCC
inhibition [4]: Active | inhibition [5]: Active | inhibition [6]: Active | IC50 [1]: 72 nM | inhibition [3]: Active

Structure (SMILES): CCCCOCC1CN(C(=S)SSC(=S)N2CCCOC(COCCCC)C2)CCCO1 (stereo not given)
IC50 [1]: 588 nM

Second part, the compound after the results:

inhibition [2]: inactive
Structure (SMILES): CCOC(=O)C1CCc2nc(S)sc2C1 (stereo not given)

IC50 [1]: 126 nM
Structure (SMILES): O=C(O)C1CN(C(=S)SSC(=S)N2CCOC(C(=O)O)C2)CCO1 (stereo not given)

IC50 [1]: 609 nM
Structure (SMILES): S=C(SSC(=S)N1CCCOC(COc2ccccc2)C1)N1CCCOC(COc2ccccc2)C1 (stereo not given)

IC50 [1]: 130 nM
Structure (SMILES): O=C(O)C1CCc2nc(SSc3nc4c(s3)CC(C(=O)O)CC4)sc2C1 (stereo not given)

IC50 [1]: > 10000 nM
Structure (SMILES): CCCCCCCCCCOCC1CN(C(=S)SSC(=S)N2CCCOC(COCCCCCCCCCC)C2)CCCO1 (stereo not given)

IC50 [1]: 289 nM | inhibition [3]: Active
Structure (SMILES): S=C(SSC(=S)N1CCO[C@H]2CCCC[C@@H]21)N1CCO[C@H]2CCCC[C@@H]21

IC50 [1]: 247 nM | inhibition [3]: Active
Structure (SMILES): S=C(SSC(=S)N1CCOC(COc2ccccc2)C1)N1CCOC(COc2ccccc2)C1 (stereo not given)

inhibition [4]: Active | inhibition [5]: Active | inhibition [6]: Active | IC50 [1]: 96 nM | inhibition [3]: Active
Structure (SMILES): CC1CN(C(=S)SSC(=S)N2CCOC(C)C2)CCO1 (stereo not given)

inhibition [2]: inactive
Structure (SMILES): Sc1nc2ccccc2s1

IC50 [1]: 379 nM
Structure (SMILES): c1ccc2sc(SSc3nc4ccccc4s3)nc2c1 [BENZOTHIAZYL DISULFIDE]

Ratio [7]: 0.54 ×10³ /M/s | Kinact [8]: 3.24 ×10⁻⁴ /s | IC50 [1]: 2440 nM | Ki [1]: 4030 nM
Structure (SMILES): OC[C@@H]1COCCN1C(=S)SSC(=S)N1CCOC[C@H]1CO

IC50 [1]: 1700 nM
Structure (SMILES): CN(C)C(=O)OCC1CN(C(=S)SSC(=S)N2CCOC(COC(=O)N(C)C)C2)CCO1 (stereo not given)

Ratio [7]: 0.03 ×10³ /M/s | Kinact [8]: 6.9 ×10⁻⁴ /s | IC50 [1]: 3870 nM | Ki [1]: 22600 nM
Structure (SMILES): S=C(SSC(=S)N1CCOC(COc2cccc3ccccc23)C1)N1CCOC(COc2cccc3ccccc23)C1 (stereo not given)

Ratio [7]: 0.07 ×10³ /M/s | Kinact [8]: 4.74 ×10⁻⁴ /s | IC50 [1]: 395 nM | Ki [1]: 872 nM
Structure (SMILES): OC1CN(C(=S)SSC(=S)N2CC(O)C2)C1

IC50 [1]: 476 nM
Structure (SMILES): c1cnc2sc(SSc3nc4cccnc4s3)nc2c1

Ratio [7]: 3.93 ×10³ /M/s | Kinact [8]: 69.9 ×10⁻⁴ /s | IC50 [1]: 39 nM | Ki [1]: 1800 nM
Structure (SMILES): C1CCc2nc(SSc3nc4c(s3)CCCCC4)sc2CC1

IC50 [1]: 218 nM
Structure (SMILES): CC1(C)CCc2nc(SSc3nc4c(s3)CC(C)(C)CC4)sc2C1

inhibition [4]: Active | inhibition [5]: Active | inhibition [6]: Active | IC50 [1]: 32 nM | inhibition [3]: Active
Structure (SMILES): C[C@@H]1CN(C(=S)SSC(=S)N2C[C@@H](C)O[C@@H](C)C2)C[C@H](C)O1

IC50 [1]: 2410 nM
Structure (SMILES): Cc1ccc(OCC2CN(C(=S)SSC(=S)N3CCOC(COc4ccc(C)cc4)C3)CCO2)cc1 (stereo not given)

IC50 [1]: 109 nM
Structure (SMILES): CCOC(=O)C1CCc2nc(SSc3nc4c(s3)CC(C(=O)OCC)CC4)sc2C1 (stereo not given)

IC50 [1]: 6830 nM
Structure (SMILES): OCCOCC1CN(C(=S)SSC(=S)N2CCCOC(COCCO)C2)CCCO1 (stereo not given)

IC50 [1]: 119 nM
Structure (SMILES): CC1CCc2nc(SSc3nc4c(s3)CC(C)CC4)sc2C1 (stereo not given)

IC50 [1]: 161 nM
Structure (SMILES): O=[N+]([O-])c1ccc2nc(SSc3nc4ccc([N+](=O)[O-])cc4s3)sc2c1
